Data on 29 compounds can be found in patent US10227357B2, “Compounds and methods for kinase modulation, and indications therefor” (Plexxikon Inc., priority 2012, dated 2019).

One experiment addresses T1, c-kit mutant D816V (Homo sapiens, UniProt P10721, D816V/DEL694-753).
T1 construct: residues 551-934, kinase insertion domain residues 694-753 deleted; 6x-histidine (N); made in house; host or cells: E. coli Arctic Express (DE3) RIL (Stratagene)
Nature of the experiment: c-Kit mutant D816V biochemical assay, AlphaScreen. The settings on record: c-kit D816V biochemical inhibitory activity; read-out: Biochemical activity (IC50 μM) Kit D816V. In outline:
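Eight-point, threefold compound series incubated 30 min at room temperature with E. coli-produced D816V kinase, 10 μM ATP, Mg2+/Mn2+ HEPES buffer pH 7.2 and 5% DMSO. After EDTA stop, streptavidin and anti-phosphotyrosine (PY20) AlphaScreen beads gave the read-out, and IC50 was fitted from the concentration–signal curve.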
(Bead proximity is the source of the signal in Alpha formats.)

In another experiment the target is T2, c-kit kinase (Homo sapiens, UniProt P10721).
T2 construct: The c-kit (or kinase domain thereof) is an active kinase in AlphaScreen; poly-Histidine tag (in-house protein only) (cleaved yes); host or cells: E. coli BL21(DE3)RIL, co-expressed with PTP1B
Nature of the experiment: c-Kit biochemical assay, AlphaScreen, 10 μM ATP. Particulars: c-kit biochemical inhibitory activity; read-out: Biochemical activity (IC50 μM) Kit. In outline:
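His-tagged c-Kit expressed in E. coli with co-expressed PTP1B (dephosphorylated), tag removed; 0.1 ng per reaction with biotinylated-peptide substrate in 50 mM HEPES pH 7.2, 5 mM MgCl2, 5 mM MnCl2, 5% DMSO, 10 μM ATP, 1 h at room temperature. Phosphorylation detected by AlphaScreen (streptavidin donor, PY20 acceptor beads); IC50 from 8-point 1:3 dilution series.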

T1 sequence (P10721 with tags, fused parts or gaps DEL694-753/D816V): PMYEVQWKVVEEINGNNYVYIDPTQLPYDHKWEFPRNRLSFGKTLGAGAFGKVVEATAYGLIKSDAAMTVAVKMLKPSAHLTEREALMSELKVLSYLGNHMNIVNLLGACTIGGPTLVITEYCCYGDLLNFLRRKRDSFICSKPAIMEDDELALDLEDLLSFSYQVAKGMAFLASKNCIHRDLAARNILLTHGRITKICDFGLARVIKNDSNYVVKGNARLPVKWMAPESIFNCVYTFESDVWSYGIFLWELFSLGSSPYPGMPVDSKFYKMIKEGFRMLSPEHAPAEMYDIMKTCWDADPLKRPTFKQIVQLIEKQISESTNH
T2 sequence (P10721 26-976): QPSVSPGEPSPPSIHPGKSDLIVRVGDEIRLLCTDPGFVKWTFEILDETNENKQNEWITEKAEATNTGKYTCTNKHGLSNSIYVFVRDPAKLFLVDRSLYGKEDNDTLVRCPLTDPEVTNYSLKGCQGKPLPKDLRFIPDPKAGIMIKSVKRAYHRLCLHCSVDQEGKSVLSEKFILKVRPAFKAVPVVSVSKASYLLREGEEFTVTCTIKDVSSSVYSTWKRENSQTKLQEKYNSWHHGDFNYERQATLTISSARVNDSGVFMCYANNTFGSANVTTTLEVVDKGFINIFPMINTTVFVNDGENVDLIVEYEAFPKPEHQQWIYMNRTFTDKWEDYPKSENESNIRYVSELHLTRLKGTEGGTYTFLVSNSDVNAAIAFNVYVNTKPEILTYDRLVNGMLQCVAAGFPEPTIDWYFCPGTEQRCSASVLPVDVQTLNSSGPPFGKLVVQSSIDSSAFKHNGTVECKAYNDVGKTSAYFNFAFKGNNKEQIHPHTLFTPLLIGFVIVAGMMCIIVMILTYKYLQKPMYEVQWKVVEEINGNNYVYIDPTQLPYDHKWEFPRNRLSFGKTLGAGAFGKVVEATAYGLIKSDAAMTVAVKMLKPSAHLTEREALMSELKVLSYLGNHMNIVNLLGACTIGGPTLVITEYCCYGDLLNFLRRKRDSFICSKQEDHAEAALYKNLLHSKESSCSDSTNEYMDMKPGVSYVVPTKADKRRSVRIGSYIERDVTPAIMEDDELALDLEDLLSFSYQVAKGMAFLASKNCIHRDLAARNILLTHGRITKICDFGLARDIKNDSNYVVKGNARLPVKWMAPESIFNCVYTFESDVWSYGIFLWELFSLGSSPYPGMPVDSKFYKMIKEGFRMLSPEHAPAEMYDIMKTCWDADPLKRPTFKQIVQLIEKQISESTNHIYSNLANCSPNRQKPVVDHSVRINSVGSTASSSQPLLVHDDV

In the case of `O=S(=O)(Nc1ccc(-c2cc3c(-c4ccc(NS(=O)(=O)C5CC5)cc4)ncnc3[nH]2)cc1)C1CC1` [P-0389, N-[4-[4-[4-(cyclopropylsulfonylamino)phenyl]-7H-pyrrolo[2,3-d]pyrimidin-6-yl]phenyl]cyclopropanesulfonamide], the IC50 – broadly, the point on the concentration scale where inhibition reaches its midpoint – at c-kit mutant D816V was 0.0001 to 1 µM; on c-kit kinase, 1 to 10 µM.

In the case of `Cc1ccc(S(=O)(=O)Nc2ccc(-c3ncnc4[nH]c(C)cc34)cc2)cc1` [P-0390, 4-methyl-N-[4-(6-methyl-7H-pyrrolo[2,3-d]pyrimidin-4-yl)phenyl]benzenesulfonamide], the IC50 lay in the range of 0.0001 to 1 µM at c-kit mutant D816V and 1 to 10 µM on c-kit kinase.

As for `O=S(=O)(Nc1ccc(-c2ncnc3[nH]c(-c4ccc(F)cc4)cc23)c(F)c1)c1ccc(Cl)cc1` [P-0396, 4-chloro-N-[3-fluoro-4-[6-(4-fluorophenyl)-7H-pyrrolo[2,3-d]pyrimidin-4-yl]phenyl]benzenesulfonamide], the IC50 on c-kit mutant D816V lay in the range of 0.0001 to 1 µM; at c-kit kinase it was 10 to 200 µM.

As for `CCCS(=O)(=O)Nc1ccc(-c2ncnc3[nH]c(-c4ccc(F)cc4)cc23)c(F)c1` [P-0397, N-[3-fluoro-4-[6-(4-fluorophenyl)-7H-pyrrolo[2,3-d]pyrimidin-4-yl]phenyl]propane-1-sulfonamide], the values for the IC50 on c-kit mutant D816V and at c-kit kinase were 0.0001 to 1 µM and 1 to 10 µM, respectively.

In the case of `CS(=O)(=O)Nc1ccc(-c2ncnc3[nH]c(-c4ccc(F)cc4)cc23)c(F)c1` [P-0398, N-[3-fluoro-4-[6-(4-fluorophenyl)-7H-pyrrolo[2,3-d]pyrimidin-4-yl]phenyl]methanesulfonamide], the IC50 at c-kit mutant D816V and on c-kit kinase was 0.0001 to 1 µM each time.

For `CS(=O)(=O)Nc1ccc(-c2ncnc3[nH]c(-c4ccc(F)cc4)cc23)cc1F` [P-0399, N-[2-fluoro-4-[6-(4-fluorophenyl)-7H-pyrrolo[2,3-d]pyrimidin-4-yl]phenyl]methanesulfonamide], the IC50 at c-kit mutant D816V and at c-kit kinase was 0.0001 to 1 µM throughout.

Consider `O=S(=O)(Nc1ccc(-c2ncnc3[nH]c(-c4ccc(F)cc4)cc23)c(F)c1)C1CC1` [P-0401, N-[3-fluoro-4-[6-(4-fluorophenyl)-7H-pyrrolo[2,3-d]pyrimidin-4-yl]phenyl]cyclopropanesulfonamide], for which the results for the IC50 at c-kit mutant D816V and on c-kit kinase were 0.0001 to 1 µM and 10 to 200 µM, respectively.

With `COc1ccc(S(=O)(=O)Nc2ccc(-c3ncnc4[nH]c(-c5ccc(F)cc5)cc34)c(F)c2)cc1` [P-0402, N-[3-fluoro-4-[6-(4-fluorophenyl)-7H-pyrrolo[2,3-d]pyrimidin-4-yl]phenyl]-4-methoxy-benzenesulfonamide], the values for the IC50 at c-kit mutant D816V and at c-kit kinase were 0.0001 to 1 µM and 1 to 10 µM, respectively.

In the case of `CCCS(=O)(=O)Nc1ccc(-c2ncnc3[nH]c(-c4ccc(F)cc4)cc23)cc1F` [P-0403, N-[2-fluoro-4-[6-(4-fluorophenyl)-7H-pyrrolo[2,3-d]pyrimidin-4-yl]phenyl]propane-1-sulfonamide], the IC50 on c-kit mutant D816V and at c-kit kinase was 0.0001 to 1 µM each time.

Turning to `O=S(=O)(Nc1ccc(-c2ncnc3[nH]c(-c4ccc(F)cc4)cc23)cc1)c1ccc(F)cc1` [P-0404, 4-fluoro-N-[4-[6-(4-fluorophenyl)-7H-pyrrolo[2,3-d]pyrimidin-4-yl]phenyl]benzenesulfonamide], the IC50 at c-kit mutant D816V and at c-kit kinase was 0.0001 to 1 µM each time.

`CCS(=O)(=O)Nc1cccc(-c2ncnc3[nH]c(-c4ccc(F)cc4)cc23)c1` [P-0407, N-[3-[6-(4-fluorophenyl)-7H-pyrrolo[2,3-d]pyrimidin-4-yl]phenyl]ethanesulfonamide]: the IC50 on c-kit mutant D816V and on c-kit kinase was 1 to 10 µM throughout.

As to `O=S(=O)(Nc1ccc(-c2ncnc3[nH]c(-c4ccc(F)cc4)cc23)cc1F)c1ccc(F)cc1` [P-0408, 4-fluoro-N-[2-fluoro-4-[6-(4-fluorophenyl)-7H-pyrrolo[2,3-d]pyrimidin-4-yl]phenyl]benzenesulfonamide], the figures for the IC50 on c-kit mutant D816V and at c-kit kinase were 1 to 10 µM and 10 to 200 µM, respectively.

In the case of `COc1ccc(S(=O)(=O)Nc2ccc(-c3ncnc4[nH]c(-c5ccc(F)cc5)cc34)cc2F)cc1` [P-0409, N-[2-fluoro-4-[6-(4-fluorophenyl)-7H-pyrrolo[2,3-d]pyrimidin-4-yl]phenyl]-4-methoxy-benzenesulfonamide], the IC50 at c-kit mutant D816V was 1 to 10 µM; on c-kit kinase, 10 to 200 µM.

For the compound `O=S(=O)(Nc1ccc(-c2ncnc3[nH]c(-c4ccc(F)cc4)cc23)cc1F)C1CC1` [P-0410, N-[2-fluoro-4-[6-(4-fluorophenyl)-7H-pyrrolo[2,3-d]pyrimidin-4-yl]phenyl]cyclopropanesulfonamide], the results for the IC50 at c-kit mutant D816V and at c-kit kinase were 0.0001 to 1 µM and 1 to 10 µM, respectively.

`O=S(=O)(Nc1cccc(-c2ncnc3[nH]c(-c4ccc(F)cc4)cc23)c1)C1CC1` [P-0413, N-[3-[6-(4-fluorophenyl)-7H-pyrrolo[2,3-d]pyrimidin-4-yl]phenyl]cyclopropanesulfonamide]: the IC50 at c-kit mutant D816V and on c-kit kinase was 1 to 10 µM throughout.

Consider `CS(=O)(=O)Nc1cccc(-c2ncnc3[nH]c(-c4ccc(F)cc4)cc23)c1` [P-0414, N-[3-[6-(4-fluorophenyl)-7H-pyrrolo[2,3-d]pyrimidin-4-yl]phenyl]methanesulfonamide], for which the IC50 at c-kit mutant D816V and on c-kit kinase was 1 to 10 µM each time.

In the case of `Fc1ccc(-c2cc3c(-c4ccc(NCc5ccc(C(F)(F)F)nc5)nc4)ncnc3[nH]2)cc1` [P-0415, 5-[6-(4-fluorophenyl)-7H-pyrrolo[2,3-d]pyrimidin-4-yl]-N-[[6-(trifluoromethyl)-3-pyridyl]methyl]pyridin-2-amine], the IC50 on c-kit mutant D816V was 1 to 10 µM; at c-kit kinase, 0.0001 to 1 µM.

As to `Nc1ccc(-c2ncnc3[nH]c(-c4ccc(F)cc4)cc23)cc1` [P-0416, 4-[6-(4-fluorophenyl)-7H-pyrrolo[2,3-d]pyrimidin-4-yl]aniline], the IC50 at c-kit mutant D816V and on c-kit kinase was 0.0001 to 1 µM in each case.

`NS(=O)(=O)c1ccc(-c2ncnc3[nH]c(-c4ccc(F)cc4)cc23)cc1` [P-0418, 4-[6-(4-fluorophenyl)-7H-pyrrolo[2,3-d]pyrimidin-4-yl]benzenesulfonamide]: the IC50 on c-kit mutant D816V lay within 0.0001 to 1 µM; at c-kit kinase, 1 to 10 µM.

Regarding `CCCCS(=O)(=O)Nc1ccc(-c2ncnc3[nH]c(-c4ccc(F)cc4)cc23)cc1` [P-0419, N-[4-[6-(4-fluorophenyl)-7H-pyrrolo[2,3-d]pyrimidin-4-yl]phenyl]butane-1-sulfonamide], the IC50 fell in the range of 0.0001 to 1 µM on c-kit mutant D816V and 10 to 200 µM on c-kit kinase.

As for `O=S(=O)(Nc1ccc(-c2ncnc3[nH]c(-c4ccc(F)cc4)cc23)cc1)C1CC1` [P-0420, N-[4-[6-(4-fluorophenyl)-7H-pyrrolo[2,3-d]pyrimidin-4-yl]phenyl]cyclopropanesulfonamide], the IC50 lay within 0.0001 to 1 µM on c-kit mutant D816V and 10 to 200 µM at c-kit kinase.

On to `COc1ccc(CNS(=O)(=O)c2ccc(-c3ncnc4[nH]c(-c5ccc(F)cc5)cc34)cc2)cc1` [P-0423, 4-[6-(4-fluorophenyl)-7H-pyrrolo[2,3-d]pyrimidin-4-yl]-N-[(4-methoxyphenyl)methyl]benzenesulfonamide], for which the IC50 on c-kit mutant D816V and at c-kit kinase was 10 to 200 µM in each case.

In the case of `Cc1ccc(NS(=O)(=O)c2ccc(-c3ncnc4[nH]c(-c5ccc(F)cc5)cc34)cc2)cc1` [P-0426, 4-[6-(4-fluorophenyl)-7H-pyrrolo[2,3-d]pyrimidin-4-yl]-N-(p-tolyl)benzenesulfonamide], the IC50 on c-kit mutant D816V fell in the range of 1 to 10 µM; at c-kit kinase, 10 to 200 µM.

For the compound `O=S(=O)(NC1CC1)c1cccc(-c2ncnc3[nH]c(-c4ccc(F)cc4)cc23)c1` [P-0429, N-cyclopropyl-3-[6-(4-fluorophenyl)-7H-pyrrolo[2,3-d]pyrimidin-4-yl]benzenesulfonamide], the IC50 on c-kit mutant D816V and at c-kit kinase was 0.0001 to 1 µM throughout.

On to `CNS(=O)(=O)c1ccc(-c2ncnc3[nH]c(-c4ccc(F)cc4)cc23)cc1` [P-0430, 4-[6-(4-fluorophenyl)-7H-pyrrolo[2,3-d]pyrimidin-4-yl]-N-methyl-benzenesulfonamide], for which the IC50 at c-kit mutant D816V lay in the range of 0.0001 to 1 µM; at c-kit kinase, 1 to 10 µM.

Consider `CCS(=O)(=O)Nc1ccc(-c2ncnc3[nH]c(-c4ccc(F)cc4)cc23)cc1` [P-0431, N-[4-[6-(4-fluorophenyl)-7H-pyrrolo[2,3-d]pyrimidin-4-yl]phenyl]ethanesulfonamide], for which the IC50 at c-kit mutant D816V and at c-kit kinase was 0.0001 to 1 µM each time.

In the case of `CS(=O)(=O)Nc1ccc(-c2ncnc3[nH]c(-c4ccc(F)cc4)cc23)cc1` [P-0432, N-[4-[6-(4-fluorophenyl)-7H-pyrrolo[2,3-d]pyrimidin-4-yl]phenyl]methanesulfonamide], the IC50 at c-kit mutant D816V and on c-kit kinase was 0.0001 to 1 µM each time.

As for `Cc1ccc(S(=O)(=O)Nc2ccc(-c3ncnc4[nH]c(-c5ccc(F)cc5)cc34)cc2)cc1` [P-0433, N-[4-[6-(4-fluorophenyl)-7H-pyrrolo[2,3-d]pyrimidin-4-yl]phenyl]-4-methyl-benzenesulfonamide], the IC50 on c-kit mutant D816V and on c-kit kinase was 0.0001 to 1 µM each time.

Regarding `CCCS(=O)(=O)Nc1cccc(-c2ncnc3[nH]c(-c4ccc(F)cc4)cc23)c1` [P-0434, N-[3-[6-(4-fluorophenyl)-7H-pyrrolo[2,3-d]pyrimidin-4-yl]phenyl]propane-1-sulfonamide], the IC50 on c-kit mutant D816V lay in the range of 10 to 200 µM; on c-kit kinase, 1 to 10 µM.
